Source: PMC11261605, “Photocontrolled Reversible Amyloid Fibril Formation of Parathyroid Hormone-Derived Peptides” (Bioconjugate Chemistry, 2024)
Converted amounts (≈) assume the structure as drawn. *1 amine or outer side, *2 acyl side, *3 side chain or, on linkers, in order; H or OH if unused. Where a SMILES comes first, the peptide text is derived from it. Where no end group is shown, it is not given here. [ ]: non-standard residue; d: D form. X1 = O=C(c1cccc(N=Nc2ccc(CN[*:1])cc2)c1)[*:2]

Assays:
[1] = Maximal solubility in buffered solution; type: physicochemical; conditions: phosphate buffer, aqueous buffer; maximal solubility from solid (0.5 mg portions into 1 mL until precipitate); 50 mM aqueous Na2HPO4 pH 7.4; centrifuged 10 000 rpm 1 h 4 °C; supernatant by UV/vis absorbance
Method: UV/vis-absorbance spectroscopy was measured on a JASCO V-660 absorbance spectrometer in a 1 cm quartz glass cuvette. For PTH25–37, the absorbance was measured at 205 nm with a molar extinction coefficient of 49.310 cm^–1 M^–1; trans-azobenzene containing peptides were measured at 327 nm with a molar extinction coefficient of 13.000 cm^–1 M^–1. CD spectroscopy was measured with a JASCO J-1500 CD Spectrometer in either a 1 mm. As buffered solution, a 50 mM aqueous Na2HPO4 buffer solution was used with a pH value adjusted to 7.4. Transmission was measured with a Litesizer DLS 500 from Anton Paar using a 3 mm × 3 mm quartz glass cuvette. The irradiation wavelength was 658 nm. The equilibration time was 1 min, and the measurement time was 10 s. The temperature was maintained at 25 °C.
To determine the maximal solubility of a peptide, small amounts (0.5 mg) of the respective peptide were added to 1 mL of buffered solution and shacked for 10 s until an insoluble precipitate was visible. The suspensions were centrifuged at 10 000 rpm for 1 h at 4 °C, and the supernatant was transferred to another tube. The remaining monomer concentration was determined using UV/vis-absorbance spectroscopy. To determine the critical concentration ccr, two samples were prepared for each peptide according to the procedure for the ThT monitored fibrillization assay, one with ThT as a reference sample and the other one without ThT. Twenty hours after the reference sample reached the stationary phase, the fibril containing solutions from the sample without ThT were transferred to a tube and centrifuged at 10 000 rpm for 1 h at room temperature. The supernatant was transferred to another tube, and the concentration of the remaining monomers was determined using UV/vis-absorbance spectroscopy at 278 nm with a molar extinction coefficient of 3750 cm^–1 M^–1 for the azobenzene containing peptides and at 205 nm with a molar extinction coefficient of 49 310 cm^–1 M^–1 for PTH25–37.

[2] = tested on: 3T3 cells; test: Resazurin reduction cell viability assay on 3T3 fibroblasts; type: cell-based, murine; conditions: trans-isomers, serial dilutions, 24 h or 96 h incubation, n = 8 per treatment, 3 independent experiments
Method: (§1) Cell viability was determined for trans-P4, trans-P8, and trans-P12 on NHDF as well as 3T3 fibroblasts with a resazurin reduction assay. Briefly, cells were seeded at desired cell densities in corresponding culture media supplemented with 10% FCS and penicillin/streptomycin in 96-well plates on day 0 and incubated overnight under standard cell culture conditions. On day 1, serial dilutions of the peptides in cell culture media were prepared. Then, medium (background and negative control–100% viability), TritonX in medium f.c. 0.025% (postive control–0% viability), and the peptide dilutions were added with one treatment per column (n = 8). Incubation for 24 h or 96 h under standard cell culture conditions followed. On day of measurement, resazurin stock solution was added to a final concentration of 44 μM into each well. After 2 h incubation, the resorufin fluorescence was measured with a Cytation 5 plate reader system. Means and standard deviation of each column were calculated. Experiments were repeated independently 3 times, and average values were evaluated (see Figure S12).
(§2) Figure S12: Cell viability assay of trans-P4, trans-P8, and trans-P12 on NHDF (human, adult, fibroblasts) and 3T3 (murine,
(§3) embryonal, fibroblasts) cells after 24 h (blue) and 96 h (orange). 100% cell viability corresponds to the value of the negative,
(§4) (1 picture or pasted object on this page, not shown here)

[3] = tested on: NHDF cells; test: Resazurin reduction cell viability assay on NHDF fibroblasts; type: cell-based, human; conditions: trans-isomers, serial dilutions, 24 h or 96 h incubation, n = 8 per treatment, 3 independent experiments
Method: as §1, §2, §3, §4

Molecule	solubility thermodynamic at 10 s [1]	toxicity toward 3T3 cells [2]	toxicity toward NHDF cells [3]
CC(C)C[C@H](NC(=O)[C@H](C)NC(=O)[C@@H](NC(=O)[C@H](Cc1ccccc1)NC(=O)[C@H](CC(N)=O)NC(=O)[C@H](Cc1c[nH]cn1)NC(=O)[C@@H](NC(=O)c1cccc(N=Nc2ccc(CNC(=O)[C@H](CC(=O)O)NC(=O)[C@H](CCC(N)=O)NC(=O)[C@H](CC(C)C)NC(=O)[C@H](CCCCN)NC(=O)[C@H](CCCCN)NC(=O)[C@@H](N)CCCNC(=N)N)cc2)c1)C(C)C)C(C)C)C(=O)O [P1] (H-RKKLQD[X1]VHNFVAL-OH)	90 µM (≈ 162 µg/mL)	–	–
CC(C)C[C@H](NC(=O)[C@H](C)NC(=O)[C@@H](NC(=O)[C@H](Cc1ccccc1)NC(=O)[C@H](CC(N)=O)NC(=O)[C@H](Cc1c[nH]cn1)NC(=O)c1cccc(N=Nc2ccc(CNC(=O)[C@@H](NC(=O)[C@H](CC(=O)O)NC(=O)[C@H](CCC(N)=O)NC(=O)[C@H](CC(C)C)NC(=O)[C@H](CCCCN)NC(=O)[C@H](CCCCN)NC(=O)[C@@H](N)CCCNC(=N)N)C(C)C)cc2)c1)C(C)C)C(=O)O [P2] (H-RKKLQDV[X1]HNFVAL-OH)	60 µM (≈ 108 µg/mL)	–	–
CC(C)C[C@H](NC(=O)[C@H](C)NC(=O)[C@@H](NC(=O)[C@H](Cc1ccccc1)NC(=O)[C@H](CC(N)=O)NC(=O)[C@H](Cc1c[nH]cn1)NC(=O)[C@@H](NC(=O)c1cccc(N=Nc2ccc(CNC(=O)[C@H](CCC(N)=O)NC(=O)[C@H](CC(C)C)NC(=O)[C@H](CCCCN)NC(=O)[C@H](CCCCN)NC(=O)[C@@H](N)CCCNC(=N)N)cc2)c1)C(C)C)C(C)C)C(=O)O [P3] (H-RKKLQ[X1]VHNFVAL-OH)	35 µM (≈ 59.2 µg/mL)	–	–
CC(C)C[C@H](NC(=O)[C@H](C)NC(=O)[C@@H](NC(=O)[C@H](Cc1ccccc1)NC(=O)[C@H](CC(N)=O)NC(=O)[C@H](Cc1c[nH]cn1)NC(=O)c1cccc(N=Nc2ccc(CNC(=O)[C@H](CC(=O)O)NC(=O)[C@H](CCC(N)=O)NC(=O)[C@H](CC(C)C)NC(=O)[C@H](CCCCN)NC(=O)[C@H](CCCCN)NC(=O)[C@@H](N)CCCNC(=N)N)cc2)c1)C(C)C)C(=O)O [P4] (H-RKKLQD[X1]HNFVAL-OH)	370 µM (≈ 631 µg/mL)	did not observe any toxicity	did not observe any toxicity
CC(C)C[C@H](NC(=O)[C@H](C)NC(=O)[C@@H](NC(=O)[C@H](Cc1ccccc1)NC(=O)[C@H](CC(N)=O)NC(=O)[C@H](Cc1c[nH]cn1)NC(=O)c1cccc(N=Nc2ccc(CNC(=O)[C@H](CCC(N)=O)NC(=O)[C@H](CC(C)C)NC(=O)[C@H](CCCCN)NC(=O)[C@H](CCCCN)NC(=O)[C@@H](N)CCCNC(=N)N)cc2)c1)C(C)C)C(=O)O [P5] (H-RKKLQ[X1]HNFVAL-OH)	25 µM (≈ 39.8 µg/mL)	–	–
CC(C)C[C@H](NC(=O)[C@H](C)NC(=O)[C@@H](NC(=O)[C@H](Cc1ccccc1)NC(=O)[C@H](CC(N)=O)NC(=O)[C@H](Cc1c[nH]cn1)NC(=O)[C@@H](NC(=O)[C@H](CC(=O)O)NC(=O)c1cccc(N=Nc2ccc(CNC(=O)[C@H](CCC(N)=O)NC(=O)[C@H](CC(C)C)NC(=O)[C@H](CCCCN)NC(=O)[C@H](CCCCN)NC(=O)[C@@H](N)CCCNC(=N)N)cc2)c1)C(C)C)C(C)C)C(=O)O [P6] (H-RKKLQ[X1]DVHNFVAL-OH)	20 µM (≈ 36.1 µg/mL)	–	–

Now from value to molecule, other results behind:

solubility thermodynamic at 10 s [1]	Molecule	toxicity toward 3T3 cells [2]	toxicity toward NHDF cells [3]
140 µM (≈ 253 µg/mL)	CC(C)C[C@H](NC(=O)[C@H](C)NC(=O)[C@@H](NC(=O)[C@H](Cc1ccccc1)NC(=O)[C@H](CC(N)=O)NC(=O)[C@H](Cc1c[nH]cn1)NC(=O)[C@@H](NC(=O)[C@H](CC(=O)O)NC(=O)[C@H](CCC(N)=O)NC(=O)c1cccc(N=Nc2ccc(CNC(=O)[C@H](CC(C)C)NC(=O)[C@H](CCCCN)NC(=O)[C@H](CCCCN)NC(=O)[C@@H](N)CCCNC(=N)N)cc2)c1)C(C)C)C(C)C)C(=O)O [P7] (H-RKKL[X1]QDVHNFVAL-OH)	–	–
200 µM (≈ 361 µg/mL)	CC(C)C[C@H](NC(=O)[C@H](C)NC(=O)[C@@H](NC(=O)[C@H](Cc1ccccc1)NC(=O)[C@H](CC(N)=O)NC(=O)[C@H](Cc1c[nH]cn1)NC(=O)[C@@H](NC(=O)[C@H](CC(=O)O)NC(=O)[C@H](CCC(N)=O)NC(=O)[C@H](CC(C)C)NC(=O)[C@H](CCCCN)NC(=O)c1cccc(N=Nc2ccc(CNC(=O)[C@H](CCCCN)NC(=O)[C@@H](N)CCCNC(=N)N)cc2)c1)C(C)C)C(C)C)C(=O)O [P8] (H-RK[X1]KLQDVHNFVAL-OH)	did not observe any toxicity	did not observe any toxicity
130 µM (≈ 218 µg/mL)	CC(C)C[C@H](NC(=O)[C@H](C)NC(=O)[C@@H](NC(=O)[C@H](Cc1ccccc1)NC(=O)[C@H](CC(N)=O)NC(=O)[C@H](Cc1c[nH]cn1)NC(=O)[C@@H](NC(=O)[C@H](CC(=O)O)NC(=O)[C@H](CCC(N)=O)NC(=O)[C@H](CC(C)C)NC(=O)[C@H](CCCCN)NC(=O)c1cccc(N=Nc2ccc(CNC(=O)[C@@H](N)CCCNC(=N)N)cc2)c1)C(C)C)C(C)C)C(=O)O [P9] (H-R[X1]KLQDVHNFVAL-OH)	–	–
7 µM (≈ 12.6 µg/mL)	CC(C)C[C@H](NC(=O)[C@H](C)NC(=O)[C@@H](NC(=O)[C@H](Cc1ccccc1)NC(=O)c1cccc(N=Nc2ccc(CNC(=O)[C@H](CC(N)=O)NC(=O)[C@H](Cc3c[nH]cn3)NC(=O)[C@@H](NC(=O)[C@H](CC(=O)O)NC(=O)[C@H](CCC(N)=O)NC(=O)[C@H](CC(C)C)NC(=O)[C@H](CCCCN)NC(=O)[C@H](CCCCN)NC(=O)[C@@H](N)CCCNC(=N)N)C(C)C)cc2)c1)C(C)C)C(=O)O [P10] (H-RKKLQDVHN[X1]FVAL-OH)	–	–
20 µM (≈ 36.1 µg/mL)	CC(C)C[C@H](NC(=O)[C@H](C)NC(=O)c1cccc(N=Nc2ccc(CNC(=O)[C@@H](NC(=O)[C@H](Cc3ccccc3)NC(=O)[C@H](CC(N)=O)NC(=O)[C@H](Cc3c[nH]cn3)NC(=O)[C@@H](NC(=O)[C@H](CC(=O)O)NC(=O)[C@H](CCC(N)=O)NC(=O)[C@H](CC(C)C)NC(=O)[C@H](CCCCN)NC(=O)[C@H](CCCCN)NC(=O)[C@@H](N)CCCNC(=N)N)C(C)C)C(C)C)cc2)c1)C(=O)O [P11] (H-RKKLQDVHNFV[X1]AL-OH)	–	–
135 µM (≈ 230 µg/mL)	CC(C)C[C@H](NC(=O)[C@H](C)NC(=O)c1cccc(N=Nc2ccc(CNC(=O)[C@H](Cc3ccccc3)NC(=O)[C@H](CC(N)=O)NC(=O)[C@H](Cc3c[nH]cn3)NC(=O)[C@@H](NC(=O)[C@H](CC(=O)O)NC(=O)[C@H](CCC(N)=O)NC(=O)[C@H](CC(C)C)NC(=O)[C@H](CCCCN)NC(=O)[C@H](CCCCN)NC(=O)[C@@H](N)CCCNC(=N)N)C(C)C)cc2)c1)C(=O)O [P12] (H-RKKLQDVHNF[X1]AL-OH)	did not observe any toxicity	did not observe any toxicity
> 500 µM	RKKLQDVHNFVAL [PTH25–37, reference compound]	–	–
